In US8765746B2 (Millennium Pharmaceuticals, Inc., priority 2010, dated 2014):

Legend:
Format in all cases: biochemical
PI3Kbeta = biological target: T1, PI3Kbeta (Homo sapiens, UniProt P42338); experiment: Human PI3K beta enzyme assay (HTRF, as for PI3K alpha); conditions: for inhibition at 1.11 µM: read-out: PI3Kbeta % inh; for IC50: read-out: IC50 (inhibit PI3Kbeta); for inhibition at 1.11 µM / PI3Kbeta % inh: at 1.11 μM
T1 construct: His (N); host or cells: SF9 insect cells (baculovirus)
Excerpt: (§1) The catalytic subunits of PI3Ks are cloned into either pDEST8(p110 alpha) or pDEST10(p110beta, p110delta, and p110gamma) as N-terminal His tagged fusion proteins using the Gateway system (Invitrogen, catalog#11804-010 for pDEST8 and 11806-015 for pDEST10). The sequences are verified before recombinant protein expression using the Baculovirus Expression System with Gateway® Technology. The accession numbers for the subunits are as follows:
(§2) The regulatory subunits of PI3Ks are cloned into pDEST8 as un-tagged protein using the Gateway system (Catalog#11804-010). The sequences are verified before recombinant protein expression using the Baculovirus Expression System with Gateway® Technology. The accession numbers for the subunits are as follows:
(§3) For expression of the p110 complexes, the p85 (MOI of 4) is co-infected with p110 alpha, beta, and delta respectively (1MOI) in SF9 cells and harvested at 60 hours post co-infection. P110 gamma was infected at 1 MOI and harvested at 60 hours post infection.
(§4) For purification, PI3Ks are purified by Ni-NTA Agarose (Qiagen #30250) followed by Mono Q 10/100 GL (Ge Healthcare #17-5167-01). VPS34 is purified by Glutathione Sepharose 4 Fast Flow (GE Healthcare #17-5132-03) followed by HiTrap Q (GE Healthcare #17-1153-01).
(§5) 0.5 uL compounds in DMSO are added to wells of a 384 well microtitre plate (Corning 3575). At room temperature: 10 ul PI3K reaction buffer (50 mM Hepes, 5 mM DTT, 150 mM NaCl, 10 mM beta-glycerophosphate, 10 mM MgCl2, 0.25 mM sodium cholate and 0.001% CHAPS, pH 7.00) containing ATP (25 uM, Promega) is added followed immediately by 10 ul PI3K reaction buffer containing di-C8 PI(4,5)P2 (3.5 uM, CellSignals) and PI3Kalpha (0.4875 nM, Millennium Protein Sciences Group) and the mixture is incubated with shaking at room temperature for 30 minutes. Then 5 ul PI3K stop mix (50 mM Hepes, 5 mM DTT, 150 mM NaCl, 0.01% Tween-20, 15 mM EDTA and 25 nM biotin-PI(3,4,5)P3 (Echelon) is added to quench the reaction followed immediately by addition of 5 ul HTRF detection mix (50 mM Hepes, 5 mM DTT, 150 mM NaCl, 0.01% Tween-20, 40 mM KF, 10 nM GST:GRP-1 PH domain (Millennium Protein Sciences Group), 15 nM Streptavidin-XL (CisBio) and 0.375 nM anti-GST Eu++ antibody (CisBio) at pH 7.00). The plates are then incubated for 1 hour at room temperature with shaking and then read on a BMG PheraStar Plus reader.
(§6) 2) Human PI3K beta, delta and gamma isoforms are tested using the procedure described for PI3K alpha above but with the following changes: PI3K beta (5.25 nM), PI3K delta (0.75 nM) and PI3K gamma (5 nM). All isoforms supplied by Millennium Protein Science Group.

VPS34 = biological target: T2, VPS34 (Homo sapiens, UniProt Q8NEB9); experiment: Human VPS34 enzyme assay (Adapta Universal Kinase Assay); conditions: for inhibition at 1.11 µM: 1 h, read-out: VPS34 % ihn; for VPS34 % ihn: at 1.11 μM
T2 construct: GST (N); host or cells: SF9 insect cells (baculovirus)
Method: VPS34 (accession number GB:BC033004) is cloned into pDEST20-Thombin as N-terminal GST tagged fusion proteins using the Gateway system (Invitrogen, catalog#11804-013). The sequences are verified before recombinant protein expression using the Baculovirus Expression System with Gateway® Technology.
For expression VPS34 was infected at 1MOI in SF9 cells and harvested 72 hours post infection.
For purification, VPS34 is purified by Glutathione Sepharose 4 Fast Flow (GE Healthcare #17-5132-03) followed by HiTrap Q (GE Healthcare #17-1153-01).
3) VPS34 is assayed using Adapta™ Universal Kinase Assay Kit (Invitrogen).
4) Human VPS34 enzyme assay method
100 mL compounds in DMSO are added to wells of a 384 well microtitre plate (Greiner 780076). At room temperature: 5 ul VPS34 reaction buffer (Invitrogen Assay Buffer Q (diluted 1 in 5 with nanopure water) plus 2 mM DTT and 2 mM MnCl2) containing ATP (20 uM, Promega) and 200 uM PI-PS substrate (Invitrogen PV5122) is added followed immediately by 5 ul VPS34 reaction buffer (as above) containing VPS34 (5 nM, Millennium Protein Sciences Group) and the mixture is incubated with shaking at room temperature for 1 hour. Then 5 ul VPS34 stop-detect mix (as per Invitrogen Adapta Assay kit (PV5009) instructions (contains kinase quench buffer, TR-FRET buffer, Adapta Eu anti-ADP antibody and Alexa Fluor 647 ADP tracer)) is added to quench the reaction. The plates are then incubated for 30 minutes at room temperature with shaking and then read on a BMG PheraStar Plus reader.

PI3Kgamma = biological target: T3, PI3Kgamma (Homo sapiens, UniProt P48736); experiment: Human PI3K gamma enzyme assay (HTRF, as for PI3K alpha); conditions: for inhibition at 1.11 µM: read-out: PI3Kgamma % inh; for PI3Kgamma % inh: at 1.11 μM
T3 construct: His (N); host or cells: SF9 insect cells (baculovirus)
Excerpt: as §1, §2, §3, §4, §5, §6

PI3Kalpha = biological target: T4, PI3Kalpha (Homo sapiens, UniProt P42336); experiment: Human PI3Kα enzyme assay (HTRF); conditions: for inhibition at 1.11 µM: read-out: PI3Kalpha % inh; for PI3Kalpha % inh: at 1.11 μM
T4 construct: His (N); host or cells: SF9 insect cells (baculovirus)
Excerpt: as §1, §2, §3, §4
1) Human PI3Kα enzyme assay method
as §5

PI3Kdelta = biological target: T5, PI3Kdelta (Homo sapiens, UniProt O00329); experiment: Human PI3K delta enzyme assay (HTRF, as for PI3K alpha); conditions: for inhibition at 1.11 µM: read-out: PI3Kdelta % inh; for PI3Kdelta % inh: at 1.11 μM
T5 construct: His (N); host or cells: SF9 insect cells (baculovirus)
Excerpt: as §1, §2, §3, §4, §5, §6

T5 sequence (O00329 whole entry): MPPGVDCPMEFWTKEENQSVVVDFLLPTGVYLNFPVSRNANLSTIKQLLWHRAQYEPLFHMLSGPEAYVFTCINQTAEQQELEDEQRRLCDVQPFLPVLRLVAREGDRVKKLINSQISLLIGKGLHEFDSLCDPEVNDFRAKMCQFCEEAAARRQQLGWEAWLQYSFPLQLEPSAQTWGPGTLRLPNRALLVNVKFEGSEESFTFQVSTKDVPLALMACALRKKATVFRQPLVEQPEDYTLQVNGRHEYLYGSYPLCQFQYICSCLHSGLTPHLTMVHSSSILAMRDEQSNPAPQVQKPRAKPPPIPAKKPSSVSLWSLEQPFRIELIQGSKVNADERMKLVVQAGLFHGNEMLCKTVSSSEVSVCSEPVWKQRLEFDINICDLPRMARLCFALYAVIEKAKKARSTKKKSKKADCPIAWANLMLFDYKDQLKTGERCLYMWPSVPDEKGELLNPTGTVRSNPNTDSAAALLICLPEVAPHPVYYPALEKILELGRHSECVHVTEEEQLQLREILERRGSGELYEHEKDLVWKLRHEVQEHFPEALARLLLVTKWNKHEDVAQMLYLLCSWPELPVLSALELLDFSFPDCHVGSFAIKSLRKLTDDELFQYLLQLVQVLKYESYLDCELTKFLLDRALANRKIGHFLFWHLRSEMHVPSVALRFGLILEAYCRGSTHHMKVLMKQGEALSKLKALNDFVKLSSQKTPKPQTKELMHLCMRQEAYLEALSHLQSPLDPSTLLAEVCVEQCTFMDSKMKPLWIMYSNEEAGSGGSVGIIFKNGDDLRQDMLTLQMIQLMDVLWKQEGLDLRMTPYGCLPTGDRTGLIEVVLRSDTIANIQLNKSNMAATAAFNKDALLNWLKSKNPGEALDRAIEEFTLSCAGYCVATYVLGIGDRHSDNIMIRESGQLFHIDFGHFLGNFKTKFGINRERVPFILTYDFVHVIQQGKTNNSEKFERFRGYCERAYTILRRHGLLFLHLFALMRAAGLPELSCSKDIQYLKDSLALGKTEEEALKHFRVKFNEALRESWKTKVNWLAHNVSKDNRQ
T5 sequence (P27986 whole entry partner): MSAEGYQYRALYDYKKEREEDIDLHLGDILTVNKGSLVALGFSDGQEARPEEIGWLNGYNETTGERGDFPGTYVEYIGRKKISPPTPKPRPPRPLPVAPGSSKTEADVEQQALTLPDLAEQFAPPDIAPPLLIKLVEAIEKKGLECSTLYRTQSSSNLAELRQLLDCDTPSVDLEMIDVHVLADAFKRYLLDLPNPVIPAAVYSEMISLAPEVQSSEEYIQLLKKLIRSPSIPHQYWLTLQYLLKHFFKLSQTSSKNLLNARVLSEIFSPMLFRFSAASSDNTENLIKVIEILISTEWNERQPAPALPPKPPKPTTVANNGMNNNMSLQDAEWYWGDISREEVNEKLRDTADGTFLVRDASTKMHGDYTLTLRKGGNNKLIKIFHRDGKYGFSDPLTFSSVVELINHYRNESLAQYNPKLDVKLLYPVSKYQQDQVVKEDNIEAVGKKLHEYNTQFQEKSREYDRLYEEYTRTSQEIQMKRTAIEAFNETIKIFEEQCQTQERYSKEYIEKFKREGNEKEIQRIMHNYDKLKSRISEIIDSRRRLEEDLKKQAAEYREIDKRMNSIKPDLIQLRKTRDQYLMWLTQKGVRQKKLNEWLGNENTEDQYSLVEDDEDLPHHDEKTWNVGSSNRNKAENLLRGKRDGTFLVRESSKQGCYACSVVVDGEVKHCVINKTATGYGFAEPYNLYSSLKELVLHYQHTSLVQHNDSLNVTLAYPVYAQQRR
T4 sequence (P42336 whole entry): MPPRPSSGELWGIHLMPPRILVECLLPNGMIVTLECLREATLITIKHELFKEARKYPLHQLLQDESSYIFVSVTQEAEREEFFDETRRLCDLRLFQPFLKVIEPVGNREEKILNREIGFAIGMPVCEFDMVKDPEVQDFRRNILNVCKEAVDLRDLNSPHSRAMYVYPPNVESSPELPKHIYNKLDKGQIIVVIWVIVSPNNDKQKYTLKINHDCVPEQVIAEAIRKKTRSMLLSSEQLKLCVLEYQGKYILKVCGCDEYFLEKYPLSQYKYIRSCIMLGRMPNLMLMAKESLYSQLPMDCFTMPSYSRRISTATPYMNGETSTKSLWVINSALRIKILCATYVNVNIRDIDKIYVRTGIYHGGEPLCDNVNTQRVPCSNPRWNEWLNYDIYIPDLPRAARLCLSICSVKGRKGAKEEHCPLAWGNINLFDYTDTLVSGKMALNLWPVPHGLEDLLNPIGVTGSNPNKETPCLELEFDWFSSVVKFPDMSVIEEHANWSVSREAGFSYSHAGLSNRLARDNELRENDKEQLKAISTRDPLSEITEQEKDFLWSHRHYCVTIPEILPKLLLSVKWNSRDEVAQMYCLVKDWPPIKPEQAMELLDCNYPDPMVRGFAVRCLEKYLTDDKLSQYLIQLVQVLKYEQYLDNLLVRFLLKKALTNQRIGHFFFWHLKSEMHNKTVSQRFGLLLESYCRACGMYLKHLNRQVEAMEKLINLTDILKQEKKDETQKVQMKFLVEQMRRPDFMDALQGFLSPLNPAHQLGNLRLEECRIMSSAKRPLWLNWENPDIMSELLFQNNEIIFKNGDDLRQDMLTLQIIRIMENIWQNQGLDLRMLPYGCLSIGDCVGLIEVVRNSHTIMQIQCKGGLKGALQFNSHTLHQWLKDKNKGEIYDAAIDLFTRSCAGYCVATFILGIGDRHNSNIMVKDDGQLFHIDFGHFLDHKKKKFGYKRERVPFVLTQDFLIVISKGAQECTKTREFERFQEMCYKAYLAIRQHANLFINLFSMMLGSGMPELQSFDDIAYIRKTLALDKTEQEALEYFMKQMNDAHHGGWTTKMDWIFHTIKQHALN
T4 sequence (P27986 whole entry partner): as the sequence (P27986 whole entry partner) above
T3 sequence (P48736 whole entry): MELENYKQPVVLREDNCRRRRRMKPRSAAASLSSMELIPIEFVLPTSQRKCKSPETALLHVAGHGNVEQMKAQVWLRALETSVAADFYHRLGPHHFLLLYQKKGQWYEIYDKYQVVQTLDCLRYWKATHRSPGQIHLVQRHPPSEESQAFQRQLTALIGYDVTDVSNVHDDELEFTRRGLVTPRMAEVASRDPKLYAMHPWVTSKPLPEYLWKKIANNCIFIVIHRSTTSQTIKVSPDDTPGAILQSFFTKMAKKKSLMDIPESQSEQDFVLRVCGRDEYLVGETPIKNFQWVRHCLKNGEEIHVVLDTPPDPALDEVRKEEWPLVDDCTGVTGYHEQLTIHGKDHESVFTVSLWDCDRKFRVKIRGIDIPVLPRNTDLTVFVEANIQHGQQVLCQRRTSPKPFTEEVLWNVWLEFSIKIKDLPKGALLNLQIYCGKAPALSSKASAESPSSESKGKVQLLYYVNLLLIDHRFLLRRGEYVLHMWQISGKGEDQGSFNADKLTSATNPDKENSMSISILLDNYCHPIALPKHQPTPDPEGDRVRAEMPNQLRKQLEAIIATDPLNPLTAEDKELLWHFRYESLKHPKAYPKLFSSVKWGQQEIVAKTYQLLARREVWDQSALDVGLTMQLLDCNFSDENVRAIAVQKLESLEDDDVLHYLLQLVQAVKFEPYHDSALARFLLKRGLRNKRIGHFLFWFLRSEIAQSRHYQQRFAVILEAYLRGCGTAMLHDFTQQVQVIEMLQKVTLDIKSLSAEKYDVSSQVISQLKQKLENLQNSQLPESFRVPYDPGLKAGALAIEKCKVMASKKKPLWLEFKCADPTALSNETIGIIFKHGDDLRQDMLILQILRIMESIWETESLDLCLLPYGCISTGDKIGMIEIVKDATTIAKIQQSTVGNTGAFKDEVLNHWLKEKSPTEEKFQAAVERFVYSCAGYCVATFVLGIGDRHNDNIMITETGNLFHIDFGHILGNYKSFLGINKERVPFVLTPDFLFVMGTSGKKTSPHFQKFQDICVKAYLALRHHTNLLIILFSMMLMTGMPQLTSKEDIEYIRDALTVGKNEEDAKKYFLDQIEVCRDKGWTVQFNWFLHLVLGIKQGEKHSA
T1 sequence (P42338 whole entry): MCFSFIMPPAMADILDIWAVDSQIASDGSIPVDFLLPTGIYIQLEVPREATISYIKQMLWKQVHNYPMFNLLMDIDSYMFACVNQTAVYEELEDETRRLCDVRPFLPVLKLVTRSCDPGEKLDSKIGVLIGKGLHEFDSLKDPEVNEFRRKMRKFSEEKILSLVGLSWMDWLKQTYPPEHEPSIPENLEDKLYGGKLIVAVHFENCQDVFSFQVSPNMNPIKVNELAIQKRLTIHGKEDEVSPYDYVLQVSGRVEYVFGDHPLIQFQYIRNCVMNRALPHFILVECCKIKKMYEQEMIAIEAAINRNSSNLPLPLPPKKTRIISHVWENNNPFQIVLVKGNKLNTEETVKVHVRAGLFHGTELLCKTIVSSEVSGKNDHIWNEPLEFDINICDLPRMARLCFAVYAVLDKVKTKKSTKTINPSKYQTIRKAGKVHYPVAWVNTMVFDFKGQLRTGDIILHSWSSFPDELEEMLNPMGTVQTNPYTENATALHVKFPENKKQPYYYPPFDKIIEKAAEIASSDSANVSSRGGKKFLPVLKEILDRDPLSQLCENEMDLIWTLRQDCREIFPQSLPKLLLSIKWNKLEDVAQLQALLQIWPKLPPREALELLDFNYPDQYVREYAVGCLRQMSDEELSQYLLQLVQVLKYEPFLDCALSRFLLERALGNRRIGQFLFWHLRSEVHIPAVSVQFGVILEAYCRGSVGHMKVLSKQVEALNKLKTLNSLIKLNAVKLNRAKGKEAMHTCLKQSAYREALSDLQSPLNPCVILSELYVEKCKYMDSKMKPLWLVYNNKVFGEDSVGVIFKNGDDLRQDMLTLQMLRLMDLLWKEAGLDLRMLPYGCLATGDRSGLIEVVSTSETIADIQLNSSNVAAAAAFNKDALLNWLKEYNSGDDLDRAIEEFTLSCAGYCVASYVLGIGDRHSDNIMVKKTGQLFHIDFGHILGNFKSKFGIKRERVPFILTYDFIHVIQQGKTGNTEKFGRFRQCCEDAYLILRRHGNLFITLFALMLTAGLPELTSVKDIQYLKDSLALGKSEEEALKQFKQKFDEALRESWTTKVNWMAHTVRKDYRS
T1 sequence (P27986 whole entry partner): as the sequence (P27986 whole entry partner) above

SMILES	inhibition at 1.11 µM (PI3Kbeta) [%]	inhibition at 1.11 µM (VPS34) [%]	inhibition at 1.11 µM (PI3Kgamma) [%]	inhibition at 1.11 µM (PI3Kalpha) [%]	inhibition at 1.11 µM (PI3Kdelta) [%]	IC50 (PI3Kbeta) [nM]	PI3Kbeta % inh (PI3Kbeta) [%]	PI3Kalpha % inh (PI3Kalpha) [%]	VPS34 % ihn (VPS34) [%]	PI3Kgamma % inh (PI3Kgamma) [%]	PI3Kdelta % inh (PI3Kdelta) [%]
O=C1CCCC(c2ccc(Cl)cc2)c2cc(-c3ccncc3)sc21 (stereo not shown) [Compound 19, 4-(4-chlorophenyl)-2-pyridin-4-yl-4,5,6,7-tetrahydro-8H-cyclohepta[b]thiophen-8-one]	86.5	-6.8	8.1	-0.4	43.1	100 to 1000					
O=C1CCC(c2ccc(Cl)cc2)c2cc(-c3ccncc3)sc21 (single isomer, unassigned) [Compound 22, 4-(4-chlorophenyl)-2-pyridin-4-yl-5,6-dihydro-1-benzothiophen-7(4H)-one]		4.4	14.2		44.5	< 100	97.500	0.600			
O=S1(=O)NCC(O)(c2ccc(Cl)cc2)c2cc(-c3ccncc3)sc21 (single isomer, unassigned) [Compound 2, 4-(4-chlorophenyl)-6-pyridin-4-yl-3,4-dihydro-2H-thieno[3,2-e][1,2]thiazin-4-ol 1,1-dioxide]						< 100	110.400	3.200	4.300	21.200	63.100
O=C1NCCC(c2ccc(Cl)cc2)c2cc(-c3ccncc3)sc21 (racemic) [Compound 8, 4-(4-chlorophenyl)-2-pyridin-4-yl-4,5,6,7-tetrahydro-8H-thieno[2,3-c]azepin-8-one]	102	2.55	21.9	2.05	59.2	< 100					
O=C1NCCCC(c2ccc(Cl)cc2)c2cc(-c3ccncc3)sc21 (stereo not shown) [Compound 31]	83.3	2	6.9	16.6	50.5	100 to 1000					
O=C1CC(c2ccc(Cl)cc2)c2cc(N3CCOCC3)sc21 (stereo not shown) [Compound 28, 4-(4-chlorophenyl)-2-morpholino-4H-cyclopenta[b]thiophen-6(5H)-one]	105			15.7	75	< 100			8.600	23.550	
CC(=O)Nc1cc(-c2cc3c(s2)C(=O)CCC3c2ccc(Cl)cc2)ccn1 (stereo not shown) [Compound 7, N-{4-[4-(4-chlorophenyl)-7-oxo-4,5,6,7-tetrahydro-1-benzothien-2-yl]pyridin-2-yl}acetamide]	64.6	9.6	6.5	20.5	91.3	100 to 1000					
N#Cc1c(N2CCOCC2)sc2c1C(c1ccc(Cl)cc1)OC2=O (stereo not shown) [Compound 3, 4-(4-chlorophenyl)-2-morpholin-4-yl-6-oxo-4,6-dihydrothieno[2,3-c]furan-3-carbonitrile]	65.7	-2.5		10.8		100 to 1000					

The next lines start with the values.

inhibition at 1.11 µM (PI3Kbeta) [%]	inhibition at 1.11 µM (VPS34) [%]	inhibition at 1.11 µM (PI3Kgamma) [%]	inhibition at 1.11 µM (PI3Kalpha) [%]	inhibition at 1.11 µM (PI3Kdelta) [%]	IC50 (PI3Kbeta) [nM]	PI3Kbeta % inh (PI3Kbeta) [%]	PI3Kalpha % inh (PI3Kalpha) [%]	VPS34 % ihn (VPS34) [%]	PI3Kgamma % inh (PI3Kgamma) [%]	PI3Kdelta % inh (PI3Kdelta) [%]	SMILES
108	5.41	65.3	12.9	100							COc1cc(C2CC(=O)c3sc(N4CCOCC4)cc32)ccc1Cl (stereo not shown) [Compound 158]
108	4.85	29.1	46.1	80.9							N#Cc1c(N2CCOCC2)sc2c1C(c1ccc(Cl)cc1)CNC2=O (stereo not shown) [Compound 149]
106	47.8	53.4	27.7	110							O=C1NCCC(c2ccc(Cl)c(Cl)c2)c2cc(N3CCOCC3)sc21 (stereo not shown) [Compound 185, 4-(3,4-dichlorophenyl)-2-(morpholin-4-yl)-4,5,6,7-tetrahydro-8H-thieno[2,3-c]azepin-8-one]
106	16.8	64.4	48.1	111							O=C1CC(c2ccc(Cl)c(Cl)c2)c2cc(N3CCOCC3)sc21 (stereo not shown) [Compound 171]
92.3	26.8	23.3	15.1	74.9							O=C1CC(c2cccc(Cl)c2)c2cc(N3CCOCC3)sc21 (stereo not shown) [Compound 186]
86.6	8.01	14.9	8.93	62.9							CN1CC(c2ccc(Cl)cc2)c2cc(N3CCOCC3)sc2C1=O (stereo not shown) [Compound 198, 4-(4-chlorophenyl)-6-methyl-2-morpholino-5,6-dihydrothieno[2,3-c]pyridin-7(4H)-one]
112		43.8	66.9	112							O=C1NCCC(c2ccc3ccccc3c2)c2cc(N3CCOCC3)sc21 (stereo not shown) [Compound 175]
99.7		71.3	50.6	98.2							N#Cc1c(N2CCOCC2)sc2c1C(c1ccc3ccccc3c1)NC2=O (stereo not shown) [Compound 169]
103		41	43.1	90							N#Cc1c(N2CCOCC2)sc2c1C(c1c(F)cc(Cl)cc1F)CNC2=O (stereo not shown) [Compound 151]
		10.4		49.6		101.46	32.28				CNC(=O)[C@@H]1NC(=O)c2sc(N3CCOCC3)cc2[C@H]1c1ccc(Cl)cc1 [Compound 123]
						87.47	17.00		4.11	35.35	CCCOC(=O)[C@@H]1NC(=O)c2sc(N3CCOCC3)cc2[C@H]1c1ccc(Cl)cc1 [Compound 136]
106		52.9	39.6	105							O=C1N[C@@H](CO)[C@H](c2ccc(Cl)c(Cl)c2)c2cc(N3CCOCC3)sc21 (relative stereo) [Compound 192, rel-(4R,5R)-4-(3,4-dichlorophenyl)-5-(hydroxymethyl)-2-(morpholin-4-yl)-5,6-dihydrothieno[2,3-c]pyridin-7(4H)-one]
